According to patent US8017791B2, “Tri-substituted 2-benzhydryl-5-benzylamino-tetrahydro-pyran-4-ol and 6-benzhydryl-4-benzylamino-tetrahydro-pyran-3-ol analogues, and novel, 3,6-disubstituted pyran derivatives” (Wayne State University, priority 2003, dated 2011):
Entries after “also recorded” stand apart in the source; their conditions may differ. Structures can show the parent of a compound that is named as a salt. Where two headings read alike, the source gives them in different places. One block for each compound: values may come before it.

Columns and labels:
DAT [1] = target: T1, DAT (Rattus norvegicus, UniProt P23977); assay: Inhibition of [3H]WIN 35,428 binding to DAT
T1 construct: rat striatum was the source for DAT, and cerebral cortex for SERT and NET; from tissue; P2 synaptosomal fraction for uptake
Description: (§1) Biology. […] Briefly, rat striatum was the source for DAT, and cerebral cortex for SERT and NET. […] Test compounds were dissolved in dimethyl sulfoxide (DMSO) and diluted out in 10% (v/v) DMSO. […] At least five triplicate concentrations of each test compound were studied, spaced evenly around the IC50 value. For DAT uptake assays, uptake of 50 nM [^3H]DA into rat striatal synaptosomes was measured exactly as described by us previously. Briefly, rat striatal P2 membrane fractions were incubated with test compounds for 8 min followed by the additional presence of [^3H]DA for 4 min at 25?. […] Construction of inhibition curves and dissolvement of test compounds were as described above.

DAT [2] = target: T1, DAT; assay: Inhibition of [3H]DA uptake by DAT into rat striatal synaptosomes; type: biochemical; settings: for IC50: Table 4, rat brain, read-out: DAT uptake, IC50 [3H]DA; for [3H]DA uptake/DAT binding: Table 3, ratio of IC50 values
Description: as §1

SERT [3] = target: T2, SERT (Rattus norvegicus, UniProt P31652); assay: SERT uptake inhibition, [3H]5-HT; type: biochemical; settings: Table 4; for IC50: rat brain, read-out: SERT uptake, IC50 [3H]5-HT; for blockade of both SERT and NET (SNRI profile), in words: in vitro data
T2 construct: rat striatum was the source for DAT, and cerebral cortex for SERT and NET; from tissue; host or cells: rat cerebral cortex

NET [4] = target: NET (Rattus norvegicus, UniProt Q9WTR4); assay: Inhibition of [3H]nisoxetine binding to NET
Description: as §1

NET [5] = assay: Inhibition of [3H]nisoxetine binding to NET; parameters: species or system rat; settings: Table 3; selectivity ratio of IC50 values
Description: as §1

SERT [6] = target: T2, SERT; assay: Inhibition of [3H]citalopram binding to SERT
Description: as §1

[7] = Table 4, rat brain, read-out: DAT binding, IC50, [3H]Win 35,428
[8] = Table 2, average ± SEM, read-out: NET binding, IC50 [3H]nisoxetine
[9] = Table 2, average ± SEM, read-out: SERT binding, IC50 [3H]citalopram

T2 sequence (P31652 whole entry): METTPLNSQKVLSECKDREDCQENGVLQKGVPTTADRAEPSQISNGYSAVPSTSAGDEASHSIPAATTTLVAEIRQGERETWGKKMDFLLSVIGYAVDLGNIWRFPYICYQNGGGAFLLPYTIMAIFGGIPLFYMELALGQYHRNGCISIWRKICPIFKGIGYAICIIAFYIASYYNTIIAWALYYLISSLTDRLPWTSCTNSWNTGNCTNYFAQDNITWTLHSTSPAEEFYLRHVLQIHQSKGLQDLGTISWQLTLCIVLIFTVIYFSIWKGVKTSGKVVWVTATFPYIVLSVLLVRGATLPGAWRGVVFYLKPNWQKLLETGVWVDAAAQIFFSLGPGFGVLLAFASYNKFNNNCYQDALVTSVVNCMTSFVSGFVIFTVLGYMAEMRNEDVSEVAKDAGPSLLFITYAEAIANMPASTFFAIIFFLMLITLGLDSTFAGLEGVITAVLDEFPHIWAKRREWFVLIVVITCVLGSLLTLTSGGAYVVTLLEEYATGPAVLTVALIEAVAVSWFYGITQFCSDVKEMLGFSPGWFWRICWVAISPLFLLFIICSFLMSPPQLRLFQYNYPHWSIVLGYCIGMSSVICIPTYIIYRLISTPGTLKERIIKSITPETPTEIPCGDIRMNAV
T1 sequence (P23977 whole entry): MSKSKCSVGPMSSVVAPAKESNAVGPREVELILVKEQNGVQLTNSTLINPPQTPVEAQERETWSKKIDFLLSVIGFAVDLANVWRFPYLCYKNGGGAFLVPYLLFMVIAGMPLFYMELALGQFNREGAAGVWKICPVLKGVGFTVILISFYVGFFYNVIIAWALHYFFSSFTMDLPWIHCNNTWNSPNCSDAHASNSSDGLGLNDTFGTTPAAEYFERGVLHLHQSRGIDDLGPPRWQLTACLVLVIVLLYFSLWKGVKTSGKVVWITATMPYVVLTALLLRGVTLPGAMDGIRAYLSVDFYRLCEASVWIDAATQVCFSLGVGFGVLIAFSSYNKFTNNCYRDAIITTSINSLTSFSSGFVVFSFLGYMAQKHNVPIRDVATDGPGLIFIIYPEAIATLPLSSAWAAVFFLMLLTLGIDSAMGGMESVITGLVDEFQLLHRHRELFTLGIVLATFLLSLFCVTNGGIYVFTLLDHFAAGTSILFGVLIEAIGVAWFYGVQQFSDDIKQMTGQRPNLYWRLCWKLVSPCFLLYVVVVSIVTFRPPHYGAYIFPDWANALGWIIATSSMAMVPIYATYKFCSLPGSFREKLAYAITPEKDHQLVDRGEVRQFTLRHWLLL

SMILES: Oc1ccc(CN[C@H]2CC[C@@H](C(c3ccccc3)c3ccccc3)OC2)cc1 [(−)-37a, cis-(3S,6S)-(6-benzhydryl-tetrahydropyran-3-yl)-(4-hydroxy-benzyl)-amine]
IC50 (DAT [1]; [7]): 280 ± 8 nM | IC50 (DAT [2]): 114 ± 8 nM | IC50 (SERT [3]): 42 ± 3 nM | blockade of both SERT and NET (SNRI profile), in words (SERT [3]): potent blockers for both SERT and NET | blockade of both SERT and NET (SNRI profile), in words (SERT [3]; listed as (−)37a): dual transport blockers

SMILES: O[C@H]1C[C@H](C(c2ccccc2)c2ccccc2)OC[C@@H]1NCc1ccccc1 [(+)-29d, (2R,4S,5S)-2-benzhydryl-5-benzylamino-tetrahydro-pyran-4-ol]
IC50 (DAT [1]; [7]): 596 ± 84 nM | IC50 (DAT [2]): 341 ± 43 nM | IC50 (SERT [3]): 6120 ± 730 nM

IC50 (NET [4]; Table 1, read-out: Inhibition of [3H]nisoxetine binding to NET, IC50): 17500 nM | IC50 (NET [4]; [8]): 17500 nM | NET binding/DAT binding (NET [5]): 11.1 | activity at DAT, in words (DAT [1]): much weaker at DAT | IC50 (DAT [1]; Table 1, rat striatum, read-out: Inhibition of [3H]Win 35,428 binding to DAT IC50): 1580 nM | IC50 (DAT [1]; Table 2, average ± SEM of three to eight experiments, read-out: DAT binding, IC50, [3H]Win 35,428): 1580 nM | IC50 (SERT [6]; Table 1, read-out: Inhibition of [3H]citalopram binding to SERT, IC50): 4780 nM | IC50 (SERT [6]; [9]): 4780 nM | SERT binding/DAT binding (SERT [6]; Table 3, selectivity ratio of IC50 values): 3
SMILES: Fc1ccc(CN[C@@H]2CCO[C@@H](C(c3ccccc3)c3ccccc3)C2)cc1 (relative stereo) [Compound 7b, trans-(2-benzhydryl-tetrahydropyran-4-yl)-(4-fluoro-benzyl)-amine]

SMILES: Nc1ccc(CN[C@H]2CC[C@@H](C(c3ccccc3)c3ccccc3)OC2)cc1 (relative stereo) [Compound 16o, Cis-(6-benzhydryl-tetrahydropyran-3-yl)-(4-amino-benzyl)-amine]
potency at NET, in words (NET [4]): high potency at NET; also recorded: high potency for the NET | [3H]DA uptake/DAT binding (DAT [2]): 1.02

SMILES: COc1cc(CN[C@@H]2CO[C@H](C(c3ccccc3)c3ccccc3)C[C@H]2O)cc(OC)c1 (as salt: oxalate) [(−)-29f, (2S,4R,5R)-2-benzhydryl-5-(3,5-dimethoxy-benzylamino)-tetrahydropyran-4-ol]
melting point: 245 to 247 °C

melting point: 243 to 244 °C
SMILES: Ic1ccc(CN[C@H]2CC[C@@H](C(c3ccccc3)c3ccccc3)OC2)cc1 (relative stereo) (as salt: oxalate) [Compound 16m, Cis-(6-benzhydryl-tetrahydropyran-3-yl)-(4-iodo-benzyl)-amine]

SMILES: COc1ccc(CN[C@@H]2C[C@@H](C(c3ccccc3)c3ccccc3)OC[C@@H]2O)cc1 (as salt: oxalate) [(−)-29g, (3R,4R,6S)-6-benzhydryl-4-(4-methoxy-benzylamino)-tetrahydro-pyran-3-ol]
melting point: 234 to 235 °C

melting point: 215 to 216 °C
SMILES: c1ccc(C(c2ccccc2)C2CCC(NCc3cc4ccccc4[nH]3)CO2)cc1 (stereo not drawn) (as salt: oxalate) [Compound 16g, Cis-(6-benzhydryl-tetrahydropyran-3-yl)-(2-indole-methyl)-amine]

SMILES: Oc1ccc(CN[C@H]2CC[C@@H](C(c3ccccc3)c3ccccc3)OC2)cc1 (as salt: oxalate) [(−)-37a, cis-(3S,6S)-(6-benzhydryl-tetrahydropyran-3-yl)-(4-hydroxy-benzyl)-amine]
melting point: 136 to 138 °C

melting point: 234 to 235 °C
SMILES: Fc1ccc(CN[C@H]2CC[C@@H](C(c3ccccc3)c3ccccc3)OC2)cc1F (relative stereo) (as salt: oxalate) [Compound 16j, Cis-(6-benzhydryl-tetrahydropyran-3-yl)-(3,4-difluoro-benzyl)-amine]

IC50 (DAT [1]; [7]): 141 ± 2.2 nM | IC50 (DAT [2]): 90.7 ± 4 nM | IC50 (SERT [3]): 209 ± 25 nM
SMILES: Oc1ccc(CN[C@@H]2CC[C@H](C(c3ccccc3)c3ccccc3)OC2)cc1 [(+)-37a, cis-(3R,6R)-(6-benzhydryl-tetrahydropyran-3-yl)-(4-hydroxy-benzyl)-amine]

SMILES: O[C@H]1C[C@H](C(c2ccccc2)c2ccccc2)OC[C@@H]1NCc1ccccc1 (as salt: oxalate) [(+)-29d, (2R,4S,5S)-2-benzhydryl-5-benzylamino-tetrahydro-pyran-4-ol]
melting point: 249 to 251 °C

SMILES: O[C@H]1C[C@H](C(c2ccccc2)c2ccccc2)OC[C@@H]1NCCc1ccc(F)cc1 (as salt: oxalate) [(+)-29c, (2R,4S,5S)-2-benzhydryl-5-[2-(4-fluoro-phenyl)-ethylamino]-tetrahydropyran-4-ol]
melting point: 203 to 205 °C

melting point: 185 to 187 °C
SMILES: Fc1ccc(CN[C@@H]2CCO[C@@H](C(c3ccccc3)c3ccccc3)C2)cc1 (relative stereo) (as salt: oxalate) [Compound 7b, trans-(2-benzhydryl-tetrahydropyran-4-yl)-(4-fluoro-benzyl)-amine]

SMILES: Oc1ccc(CN[C@H]2CC[C@@H](C(c3ccccc3)c3ccccc3)OC2)cc1 (relative stereo) [Compound 16h, Cis-(6-benzhydryl-tetrahydropyran-3-yl)-(4-hydroxy-benzyl)-amine]
potency at NET, in words (NET [4]): high potency for the NET | IC50 (DAT [1]; read-out: IC50 at the DAT): 78.4 nM | IC50 (SERT [6]; [9]): 398 ± 22 nM

SMILES: COc1ccc(CN[C@@H]2CO[C@H](C(c3ccccc3)c3ccccc3)C[C@H]2O)cc1 [(−)-29a, (2S,4R,5R)-2-benzhydryl-5-(4-methoxy-benzylamino)-tetrahydropyran-4-ol]
blockade of both SERT and NET (SNRI profile), in words (SERT [3]): potent blockers for both SERT and NET | blockade of both SERT and NET (SNRI profile), in words (SERT [3]; listed as (−)29a): dual transport blockers

SMILES: N#Cc1ccc(CN[C@H]2CC[C@@H](C(c3ccccc3)c3ccccc3)OC2)cc1 (relative stereo) [Compound 16c, Cis-(6-benzhydryl-tetrahydropyran-3-yl)-(4-cyano-benzyl)-amine]
IC50 (NET [4]; [8]): 1580 nM | [3H]DA uptake/DAT binding (DAT [2]): 1.1 | IC50 (SERT [6]; [9]): 863 ± 52 nM

SMILES: O[C@@H]1C[C@@H](C(c2ccccc2)c2ccccc2)OC[C@H]1NCc1ccc2[nH]ccc2c1 [(−)-32b, (2S,4R,5R)-2-benzhydryl-5-[(1H-indol-5-ylmethyl)-amino]-tetrahydropyran-4-ol]
IC50 (DAT [1]; [7]): 705 ± 176 nM | IC50 (DAT [2]): 162 ± 11 nM | blockade of both SERT and NET (SNRI profile), in words (SERT [3]): potent blockers for both SERT and NET | blockade of both SERT and NET (SNRI profile), in words (SERT [3]; listed as (−)32b): dual transport blockers

SMILES: N#Cc1ccc(CN[C@H]2CC[C@@H](C(c3ccccc3)c3ccccc3)OC2)cc1 (relative stereo) (as salt: oxalate) [Compound 16c, Cis-(6-benzhydryl-tetrahydropyran-3-yl)-(4-cyano-benzyl)-amine]
melting point: 241 to 242 °C

melting point: 177 to 179 °C
SMILES: c1ccc(C(c2ccccc2)C2CCC(NCc3c[nH]c4ccccc34)CO2)cc1 (stereo not drawn) (as salt: oxalate) [Compound 16f, Cis-(6-benzhydryl-tetrahydropyran-3-yl)-(3-indole-methyl)-amine]

SMILES: c1ccc(CN[C@H]2CC[C@@H](C(c3ccccc3)c3ccccc3)NC2)cc1 [Compound 1a, reference compound]
IC50 (NET [4]; read-out: Inhibition of [3H]nisoxetine binding to NET, IC50): 612 ± 130 nM

melting point: 229 to 230 °C
SMILES: Fc1ccc(CN[C@H]2CC[C@@H](C(c3ccccc3)c3ccccc3)OC2)cc1 (relative stereo) (as salt: oxalate) [Compound 16b, Cis-(6-benzhydryl-tetrahydropyran-3-yl)-(4-fluoro-benzyl)-amine]

SMILES: O[C@@H]1C[C@@H](C(c2ccccc2)c2ccccc2)OC[C@H]1NCc1ccccc1 (as salt: oxalate) [(−)-29d, (2S,4R,5R)-2-benzhydryl-5-benzylamino-tetrahydro-pyran 4-ol]
melting point: 250 to 252 °C

SMILES: O[C@H]1C[C@H](C(c2ccccc2)c2ccccc2)OC[C@@H]1NCc1ccc(F)cc1 (as salt: oxalate) [(+)-29b, (2R,4S,5S)-2-benzhydryl-5-(4-fluoro-benzylamino)-tetrahydro-pyran-4-ol]
melting point: 223 to 225 °C

SMILES: O[C@@H]1C[C@@H](C(c2ccccc2)c2ccccc2)OC[C@H]1NCc1ccccc1 [(−)-29d, (2S,4R,5R)-2-benzhydryl-5-benzylamino-tetrahydro-pyran 4-ol]
IC50 (DAT [2]): 600 ± 79 nM | IC50 (SERT [3]): 862 ± 36 nM

melting point: 251 to 252 °C
SMILES: Clc1ccc(CN[C@H]2CC[C@@H](C(c3ccccc3)c3ccccc3)OC2)cc1Cl (relative stereo) (as salt: oxalate) [Compound 16i, Cis-(6-benzhydryl-tetrahydropyran-3-yl)-(3,4-dichloro-benzyl)-amine]

melting point: 177 to 181 °C
SMILES: Fc1ccc(CN[C@H]2CCO[C@@H](C(c3ccccc3)c3ccccc3)C2)cc1 (relative stereo) (as salt: oxalate) [Compound 7a, cis-(2-benzhydryl-tetrahydropyran 4-yl)-(4-fluorobenzyl)-amine]

SMILES: COc1ccc(CN[C@@H]2CO[C@H](C(c3ccccc3)c3ccccc3)C[C@H]2O)cc1 (as salt: oxalate) [(−)-29a, (2S,4R,5R)-2-benzhydryl-5-(4-methoxy-benzylamino)-tetrahydropyran-4-ol]
melting point: 230 to 232 °C
